{"source": "patent US8507411B2", "about": "“Neoglycorandomization and digitoxin analogs” (priority 2004, dated 2013)", "key": {"[1]": {"assay": "Hydrolytic stability of the neoglycosidic linkage", "type": "physicochemical", "conditions": "neutral or basic conditions (pH 7, pH 9), 3 mM in 1:1 DMSO/buffer, one month", "protocol": "FIG. 4 is a graphic representation of the results of studies on the hydrolytic stability of neoglycoside 4α. The chemical stability of the neoglycosidic linkage was examined by monitoring the hydrolytic degradation of neoglycoside 4α in a 3 mM solution of 1:1 DMSO/buffer. Three buffers were used, 50 mM acetate buffer (pH 5), 50 mM phosphate buffer (pH 7), and 50 mM Tris buffer (pH 9). Neoglycoside degradation was monitored by reverse phase HPLC on an Agilent Zorbax Eclipse XDB-C8 column (4.6×150 mm) with a flow rate of 0.8 mL min^−1 and a linear gradient of 49% CH3OH/H2O to 89% CH3OH/H2O over 20 min. At t=0, neoglycoside 4α in 500 μL DMSO was added to 500 μL buffer, and the resulting solution was vortexed for 40 sec, then immediately injected onto the HPLC. Peak areas at 220 nm were used to estimate the neoglycoside/aglycon ratio, which is reported as “percent neoglycoside remaining” [Aneoglycoside/(Aneoglycoside+Aaglycon)] for each of the three buffer systems.\nHydrolytic Stability of 4α. The chemical stability of the neoglycosidic linkage was examined by monitoring the hydrolytic degradation of neoglycoside 4α in a 3 mM solution of 1:1 DMSO/buffer. Three buffers were used, 50 mM acetate buffer (pH 5), 50 mM phosphate buffer (pH 7), and 50 mM Tris buffer (pH 9). Neoglycoside degradation was monitored by reverse phase HPLC on an Agilent Zorbax Eclipse XDB-C8 column (4.6×150 mm) with a flow rate of 0.8 mL min^−1 and a linear gradient of 49% CH3OH/H2O to 89% CH3OH/H2O over 20 min. At t=0, neoglycoside 4α in 500 μL DMSO was added to 500 μL buffer, and the resulting solution was vortexed for 40 sec, then immediately injected onto the HPLC. Peak areas at 220 nm were used to estimate the neoglycoside/aglycon ratio, which is reported as “percent neoglycoside remaining” [Aneoglycoside/(Aneoglycoside+Aaglycon)] for each of the three buffer systems (see FIG. 4).\nThe chemical stability of the neoglycosidic linkage was examined by monitoring the hydrolytic degradation of neoglycoside 4α in a 3 mM solution of 1:1 DMSO/buffer using buffers at three different pHs."}, "NCI-H460": {"system": "NCI-H460", "assay": "Cell titer-glo cytotoxicity assay, NCI-H460", "type": "cell-based, human", "text": "(§1) FIG. 7 is a graphical summary of the results of the IC50 data from cytotoxicity assays. […] In the assay, live cells are quantified by measuring the luminescent signal resulting from the reaction between cellular ATP and luciferin to form oxyluciferin. The IC50 value for each compound represents at least four replicates of dose-response experiments conducted over six concentrations at two-fold dilutions.\n(§2) The anticancer activities of ten panel analogues (3a-c,e,f and 4a-c,e,f) and digitoxin (1) were assessed using a high-throughput cytotoxicity assay on four human cancer cell lines, (FIG. 7) representing lung, colorectal, and ovarian carcinomas, as well as NCI/ADR-RES, a drug-resistant ovarian carcinoma line (For years, NCI/ADR-RES cells have been misidentified as drug-resistant MCF-7 breast adenocarcinoma cells, but recently this line has been shown definitively to be a drug-resistant line derived from OVCAR-8 ovarian adenocarcinoma cells. Liscovitch, M. et al., Cancer Lett. (2007) 245, 350-352.\n(§3) All cell lines were maintained as previously reported (Langenhan, J. M. et al., Proc. Natl. Acad. Sci. (2005) 102, 12305-12310.) Cells were harvested by trypsinization using 0.25% trypsin and 0.1% EDTA and then counted in a Cellometer Auto T4 cell counter (Nexcelom, inc), before dilution for assay plating. […] Each plate was read for luminescence. […]"}, "HT-29": {"system": "HT-29", "assay": "Cell titer-glo cytotoxicity assay, HT-29", "type": "cell-based, human", "conditions": "HT-29, Cell titer-glo", "text": "as §1, §2, §3"}}}
{"compound": "CON([C@H]1CC[C@@]2(C)[C@H](CC[C@@H]3[C@@H]2CC[C@]2(C)[C@@H](C4=CC(=O)OC4)CC[C@]32O)C1)[C@@H]1O[C@H](CO)[C@@H](O)[C@H](O)[C@@H]1O", "note": "[27β, D-mannoside]", "values": [{"measurement": "hydrolytic stability", "setting": "[1]", "result": "no hydrolytic degradation"}]}
{"compound": "CON([C@H]1CC[C@@]2(C)[C@H](CC[C@@H]3[C@@H]2CC[C@]2(C)[C@@H](C4=CC(=O)OC4)CC[C@]32O)C1)[C@H]1OC[C@H](O)[C@@H](O)[C@@H]1O", "note": "[23β, L-xyloside]", "values": [{"measurement": "IC50", "setting": "NCI-H460", "result": 55, "unit": "nM"}, {"measurement": "IC50", "setting": "HT-29", "result": 66, "unit": "nM"}]}
{"compound": "CON([C@H]1CC[C@@]2(C)[C@H](CC[C@@H]3[C@@H]2CC[C@]2(C)[C@@H](C4=CC(=O)OC4)CC[C@]32O)C1)[C@H]1OC[C@H](O)[C@H](O)[C@@H]1O", "note": "[5β, L-riboside]", "values": [{"measurement": "IC50", "setting": "HT-29", "result": 80, "unit": "nM"}]}
